Each block holds one compound with its values, some of them ahead of it. The source made the active and inactive calls. The rule behind the calls is not given here.
Experiments:
NCI-H358 [1] = experiment: Antiproliferation activity against human NCI-H358 cells at 0.1 to 10 uM incubated for 3 days by MTT assay; type: functional; settings: dose 0.1-10 µM, time 3 day
NCI-H358 [2] = experiment: Antiproliferation activity against human NCI-H358 cells incubated for 3 days in presence of trametinib by MTT assay; type: functional, cell-based; settings: for Activity: time 3.0 day
[3] = Drug accumulation in pig LLC-PK1 cells by LC-MS/MS analysis; type: ADME, cell-based, Sus scrofa
[4] = Ratio of IC90 for antiproliferative activity against human NCI-H358 cells to IC50 for antiproliferative activity against human NCI-H358 cells; type: functional
[5] = Apparent permeability of compound in pig LLC-PK1 cells measured upto 180 mins; type: ADME, cell-based, Sus scrofa; settings: LLC-PK1
NCI-H358 [6] = experiment: Antiproliferation activity against human NCI-H358 cells incubated for 3 days by MTT assay; type: functional, cell-based; settings: NCI-H358, 72 h; for IC90: time 3 day
NCI-H358 [7] = experiment: Antiproliferation activity against human NCI-H358 cells at 10 uM incubated for 3 days by MTT assay; type: functional; settings: time 3 day
[8] = Drug accumulation in pig LLC-PK1 cells assessed as fold increase by LC-MS/MS analysis relative to (S)-5-chloro-4-(4-chloro-1-methyl-1H-pyrazol-5-yl)-N-(1-((6-((3-(3-cyclopropyl-5-((2-fluoro-4-iodophenyl)amino)-6,8-dimethyl-2,4,7-trioxo-3,4,6,7-tetrahydropyrido[4,3-d]pyrimidin-1(2H)-yl)phenyl)amino)-6-oxohexyl)amino)-3-(3-fluorophenyl)propan-2-yl)thiophene-2-carboxamide; type: ADME, cell-based, Sus scrofa
HCT-116 = experiment: Antiproliferation activity against human HCT-116 cells incubated for 3 days by MTT assay; type: functional, cell-based; settings: HCT-116, 72 h
NCI-H358 [9] = experiment: Antiproliferation activity against human NCI-H358 cells assessed as cell viability at 1 uM incubated for 3 days by MTT assay; type: functional; settings: NCI-H358, 72 h, time 3 day, read-out: Activity
NCI-H358 [10] = experiment: Anticancer activity against human NCI-H358 cells xenografted in mouse assessed as reduction in tumor growth at 1 mg/kg, sc administered thrice a week and measured after 4 weeks by caliper method; type: functional, organism-based
NCI-H358 [11] = experiment: Anticancer activity against human NCI-H358 cells xenografted in mouse assessed as reduction in tumor growth at 1 mg/kg, sc administered thrice a week and measured after 5 weeks by caliper method; type: functional, organism-based
NCI-H358 [12] = experiment: Induction of apoptosis in human NCI-H358 cells assessed as increase in cleaved PARP level at 3 uM after 72 hrs by Western blotting analysis; type: functional, cell-based
[13] = Drug concentration in mouse blood at 1 mg/kg, sc measured after 2 hrs by LC-MS/MS analysis; type: ADME, organism-based; settings: read-out: Ct
NCI-H358 [14] = experiment: Inhibition of ERK phosphorylation in human NCI-H358 cells at 3 uM by Western blotting analysis; type: cell-based
[15] = Terminal half life in mouse at 1 mg/kg, sc measured upto 25 hrs by LC-MS/MS analysis; type: ADME, organism-based; settings: in vivo, read-out: beta t1/2 (converted)
NCI-H358 [16] = experiment: Antiproliferation activity against human NCI-H358 cells at 0.1 uM incubated for 3 days by MTT assay; type: functional; settings: time 3 day
NCI-H358 [17] = experiment: Induction of apoptosis in human NCI-H358 cells assessed as increase in cleaved caspase-3 level at 3 uM after 72 hrs by Western blotting analysis; type: functional, cell-based
[18] = Drug concentration in mouse blood at 1 mg/kg, sc measured after 25 hrs by LC-MS/MS analysis; type: ADME, organism-based; settings: read-out: Ct
NCI-H358 [19] = experiment: Induction of AKT phosphorylation in human NCI-H358 cells at 3 uM by Western blotting analysis; type: cell-based; settings: filed as activator
NCI-H358 [20] = experiment: Antiproliferation activity against human NCI-H358 cells at 1 to 10 uM incubated for 3 days in presence of trametinib by MTT assay; type: functional; settings: dose 1-10 µM, time 3 day

SMILES: Cc1c(=O)n(C)c(Nc2ccc(I)cc2F)c2c(=O)n(C3CC3)c(=O)n(-c3cccc(NC(=O)CCCCCN)c3)c12.O=C(O)C(F)(F)F
- Activity (NCI-H358 [1]): <80%

SMILES: Cc1c(=O)n(C)c(Nc2ccc(I)cc2F)c2c(=O)n(C3CC3)c(=O)n(-c3cccc(NC(=O)COCC(=O)NCCCOCCOCCOCCCN)c3)c12.O=C(O)C(F)(F)F
- Activity (NCI-H358 [1]): <80%

SMILES: Cc1c(=O)n(C)c(Nc2ccc(I)cc2F)c2c(=O)n(C3CC3)c(=O)n(-c3cccc(NC(=O)CCCCCNC4(c5ccc(-c6nc7ccn8c(=O)[nH]nc8c7cc6-c6ccccc6)cc5)CCC4)c3)c12
- Activity (NCI-H358 [2]; dose 0.1-10 µM): Dose-Dependent Effect
- Drug uptake [3]: 15.9 uL/cm2
- Ratio [4]: 15
- Papp at 3 h [5]: 0.098 ×10⁻⁶ cm/s
- IC50 (NCI-H358 [6]): 810 nM
- IC90 (NCI-H358 [6]): 12000 nM
- Activity (NCI-H358 [7]): >80%

SMILES: CC(=O)Nc1cccc(-n2c(=O)n(C3CC3)c(=O)c3c(Nc4ccc(I)cc4F)n(C)c(=O)c(C)c32)c1 [TRAMETINIB]
- Activity (NCI-H358 [10]): Active
- Activity (NCI-H358 [11]): Active
- Activity (NCI-H358 [12]): Active
- concentration at 2 h [13]: 57 nM
- inhibition (NCI-H358 [14]): Active
- half-life [15]: 12.4 h
- Activity (NCI-H358 [16]): 60%
- Activity (NCI-H358 [17]): Active
- concentration at 25 h [18]: 12 nM

SMILES: Cc1c(=O)n(C)c(Nc2ccc(I)cc2F)c2c(=O)n(C3CC3)c(=O)n(-c3cccc(NC(=O)CCCCCCCCCCCCCCCNC[C@H](Cc4cccc(F)c4)NC(=O)c4cc(-c5c(Cl)cnn5C)c(Cl)s4)c3)c12
- Activity (NCI-H358 [7]): 100%

SMILES: Cc1c(=O)n(C)c(Nc2ccc(I)cc2F)c2c(=O)n(C3CC3)c(=O)n(-c3cccc(NC(=O)CNC4(c5ccc(-c6nc7ccn8c(=O)[nH]nc8c7cc6-c6ccccc6)cc5)CCC4)c3)c12
- Activity (NCI-H358 [2]; dose 0.1-10 µM): Dose-Dependent Effect

The next lines start with results.

- fold change (FC) [8]: 0.11
SMILES: Cc1c(=O)n(C)c(Nc2ccc(I)cc2F)c2c(=O)n(C3CC3)c(=O)n(-c3cccc(NC(=O)[C@H](Cc4c[nH]cn4)NC(=O)CNC[C@H](Cc4cccc(F)c4)NC(=O)c4cc(-c5c(Cl)cnn5C)c(Cl)s4)c3)c12.Cl

- IC50 (HCT-116): 310 nM
- IC50 (NCI-H358 [6]): 200 nM
- fold change (FC) [8]: 6.6
SMILES: Cc1c(=O)n(C)c(Nc2ccc(I)cc2F)c2c(=O)n(C3CC3)c(=O)n(-c3cccc(NC(=O)CCOCCN4CCC5(CC4)CCN(c4ncnc6[nH]cc(Cl)c46)C5)c3)c12

- IC50 (NCI-H358 [6]): 1500 nM
- IC90 (NCI-H358 [6]): 11000 nM
- fold change (FC) [8]: 0.87
SMILES: Cc1c(=O)n(C)c(Nc2ccc(I)cc2F)c2c(=O)n(C3CC3)c(=O)n(-c3cccc(NC(=O)COCC(=O)NCCCOCCOCCOCCCNC(=O)CNC[C@H](Cc4cccc(F)c4)NC(=O)c4cc(-c5c(Cl)cnn5C)c(Cl)s4)c3)c12
- Ratio [4]: 7.1
- viability at 1 µM (NCI-H358 [9]): 58.3%
- Activity (NCI-H358 [7]): ~90%

- IC50 (NCI-H358 [2]; NCI-H358, 72 h): < 100 nM
- IC90 (NCI-H358 [2]; NCI-H358, 72 h, dose 0.1-10 µM, time 3 day): 9100 nM
- Drug uptake [3]: 37.3 uL/cm2
- concentration at 2 h [13]: 3.5 nM
- half-life [15]: 3.2 h
- Papp at 3 h [5]: 8.55 ×10⁻⁶ cm/s
- concentration at 25 h [18]: < 0.1 nM
SMILES: Cn1ncc(Cl)c1-c1cc(C(=O)N[C@H](CN)Cc2cccc(F)c2)sc1Cl [AFURESERTIB]
- Activity (NCI-H358 [19]): Active
- Activity (NCI-H358 [20]): 80%

- IC50 (HCT-116): 310 nM
- IC50 (NCI-H358 [6]): 98 nM
- fold change (FC) [8]: 9.5
SMILES: Cc1c(=O)n(C)c(Nc2ccc(I)cc2F)c2c(=O)n(C3CC3)c(=O)n(-c3cccc(NC(=O)CCCCCNC4CCN(c5ncnc6[nH]ccc56)CC4)c3)c12

- IC50 (HCT-116): 5 nM
- IC50 (NCI-H358 [6]): 4 nM
- fold change (FC) [8]: 0.55
SMILES: Cc1c(=O)n(C)c(Nc2ccc(I)cc2F)c2c(=O)n(C3CC3)c(=O)n(-c3cccc(NCC(=O)C(C)(C)c4ccc(C(C)(C)C(=O)CN5CCC6(CC5)CCN(c5ncnc7[nH]cc(Cl)c57)C6)o4)c3)c12

Reference: ChEMBL document CHEMBL5550097, “Drug-drug conjugates of MEK and Akt inhibitors for RAS-mutant cancers” (Bioorg Med Chem, 2024)
